Results from patent US5807837A, “Composition and method for the treatment or prophylaxis of viral infections using modified oligodeoxyribonucleotides” (Sankyo Company, Limited, priority 1993, dated 1998).

System: non-HIV-1 infected MT-4 cells
Assay: Cytotoxicity: inhibition of multiplication of non-HIV-1 infected MT-4 cells (MTT method)
Assay type: cell-based
Settings: 6 days culture, 50% inhibition of multiplication
Method: HIV-1 infected MT-4 cells and non-HIV-1 infected MT-4 cells were suspended in serum culture media so that a concentration of […] cells/ml of each was attained. One hundred μl of a solution of stepwise diluted sample compound (dissolved in serum culture media), prepared in advance, was placed in each well of […] microtiter plates. Then, 100 μl of each of the above-mentioned cell suspensions was added to each well of microtiter plates, and their cells were cultured for 6 days in the presence of 5% carbon dioxide gas.
As a control, HIV-1 infected MT-4 cells and non-HIV-1 infected MT-4 cells in which no sample compound was added were cultured in the same manner.
After the cultivation, live cell number was measured based on the MTT(3-(4,5-dimethylthiazole-2-yl)-2,5-diphenyltetrazolium bromide) method (L. M. Green et al., J. Immunol, Methods, 70, 257-268(1984)). Then the cytopathic activity of HIV-1 was measured. With the cytopathic activity of HIV-1 infected MT-4 cells to which no sample compound was added as 100%, and the cytopathic activity of […] MT-4 cells to which no sample compound was added as 0%, the concentration of the specimen which inhibited the cytopathic activity of HIV-1 infected MT-4 cells by 50(IC50) was calculated. The cytotoxicity of the sample compound was determined as that concentration which inhibited the multiplication of non-HIV-1 infected MT-4 cells by 50% (CC50).

Substance	CC50 [µg/mL]
DMT--O--AATGGGAGG--OH [Example 81]	> 100.0
DMT--O--CCG--OH [Example 74]	> 100.0
DMT--O--CGCGG--OH [Example 48]	> 100.0
DMT--O--CGGGAGG--OH [Example 29]	> 100.0
DMT--O--CGGGG--OH [Example 45]	> 100.0
DMT--O--CGGGT--OH [Example 43]	100.0
DMT--O--CTGGGAGG--OH [Example 37]	> 100.0
DMT--O--GGGCGGGGC--OH [Example 70]	60.0
DMT--O--GGGGAGG--OH [Example 33]	> 100.0
DMT--O--GTGGGAGG--OH [Example 77]	> 100.0
DMT--O--TAGGAGG--OH [Example 71]	37.0
DMT--O--TCGGAGG--OH [Example 75]	40.0
DMT--O--TGCGAGG--OH [Example 32]	> 100.0
DMT--O--TGG--OH [Example 78]	> 50.0
DMT--O--TGGG--OH [Example 26]	80.0
DMT--O--TGGGA--OH [Example 27]	95.0
DMT--O--TGGGAGA--OH [Example 80]	> 100.0
DMT--O--TGGGAGG--OH [Example 30]	> 100.0
DMT--O--TGGGAGGT--OH [Example 72]	> 100.0
DMT--O--TGGGAmGG [Example 79]	> 100.0
DMT--O--TGGGC--OH [Example 58]	50.0
DMT--O--TGGGCGCAG--OH [Example 73]	> 100.0
DMT--O--TGGGG--OH [Example 28]	> 100.0
DMT--O--TGGGT--OH [Example 57]	100.0
DMT--O--TGmCGAGG--OH [Example 76]	> 100.0
DMT--O--TTGGAGG--OH [Example 31]	90.0
DMT--O--TTGGGAGG--OH [Example 36]	100.0
DMT--O--mCGGGAGG--OH [Example 34]	> 100.0
DMT--O--mCGmCGAGG--OH [Example 35]	> 100.0
DMT-O-TGGGAG-OH [Example 25]	> 100.0
